In article PMC11269933, “MAPK/ERK-PK(Ser11) pathway regulates divergent thermal metabolism of two congeneric oyster species” (iScience, 2024) one finds Kd data, which are given here for 2 compounds.

The Kd is the free concentration of one partner at which half of the binding sites on the other are occupied at equilibrium, for simple one-to-one binding.

Assay [1] concerns the target T1, CgPK (Magallana gigas, UniProt Z9A5V8HWU5).
T1 construct: full-length CDS in pET-32a, 6xHis tags at N- and C-ends, expressed in E. coli; captured on CM5 chip by anti-His antibody
As to the kind of experiment: SPR (BIAcore T200, CM5 chip, anti-His capture), […] Langmuir fit. It is filed as binding. The settings on record: PBS-P+ analyte buffer, running buffer HBS-EP+ pH 7.5, mimics dephosphorylation. (Surface plasmon resonance follows binding to a sensor surface in real time, without labels.)

For assay [2], the target named is T1, CgPK. The description is as above. It is filed as binding. The settings on record: PBS-P+ analyte buffer, running buffer HBS-EP+ pH 7.5, recombinant from E. coli.

In the case of `Nc1ncnc2c1ncn2[C@@H]1O[C@H](COP(=O)(O)OP(=O)(O)O)[C@@H](O)[C@H]1O` [ADP], the dissociation constant Kd was 72.5 nM in assay [1] (ADP 1.25-10 uM) and 41.7 nM in assay [2] (ADP 1.25-10 uM).

As to `C=C(OP(=O)(O)O)C(=O)O` [PEP], the dissociation constant Kd in assay [1] (PEP 100-1600 nM) amounted to 93.4 nM; in assay [2] (PEP 100-1600 nM), 9.75 nM.
